Test results taken from ChEMBL document CHEMBL1629685, “Macrolide and clindamycin resistance in Streptococcus milleri group isolates from the airways of cystic fibrosis patients” (2010).

Key:
Type in all cases: functional
Streptococcus anginosus [1] = experiment: Antimicrobial activity against Streptococcus anginosus obtained from patient with cystic fibrosis assessed as non-susceptible isolates grown on brain heart infusion agar at 30 ug/ml after 24 hrs at 37 degC by disk diffusion method
[2] = test system: Streptococcus constellatus; experiment: Antimicrobial activity against invasive Streptococcus constellatus obtained from non-cystic fibrosis patient assessed as non-susceptible isolates grown on mueller-Hinton blood agar at 30 ug/ml after 24 hrs at 37 degC by disk diffusion method in presence of 5% defribinated sheep blood
Streptococcus anginosus [3] = experiment: Antimicrobial activity against invasive Streptococcus anginosus obtained from non-cystic fibrosis patient assessed as non-susceptible isolates grown on mueller-Hinton blood agar at 30 ug/ml after 24 hrs at 37 degC by disk diffusion method in presence of 5% defribinated sheep blood
[4] = test system: Streptococcus constellatus; experiment: Antimicrobial activity against Streptococcus constellatus obtained from patient with cystic fibrosis assessed as non-susceptible isolates grown on brain heart infusion agar at 30 ug/ml after 24 hrs at 37 degC by disk diffusion method
[5] = test system: Streptococcus constellatus; experiment: Antimicrobial activity against invasive Streptococcus constellatus obtained from non-cystic fibrosis patient assessed as non-susceptible isolates grown on brain heart infusion agar at 30 ug/ml after 24 hrs at 37 degC by disk diffusion method
[6] = test system: Streptococcus intermedius; experiment: Antimicrobial activity against Streptococcus intermedius obtained from patient with cystic fibrosis assessed as non-susceptible isolates grown on brain heart infusion agar at 30 ug/ml after 24 hrs at 37 degC by disk diffusion method
[7] = test system: Streptococcus intermedius; experiment: Antimicrobial activity against Streptococcus intermedius obtained from patient with cystic fibrosis assessed as non-susceptible isolates grown on mueller-Hinton blood agar at 30 ug/ml after 24 hrs at 37 degC by disk diffusion method in presence of 5% defribinated sheep blood
Streptococcus anginosus [8] = experiment: Antimicrobial activity against invasive Streptococcus anginosus obtained from non-cystic fibrosis patient assessed as non-susceptible isolates grown on brain heart infusion agar at 30 ug/ml after 24 hrs at 37 degC by disk diffusion method
[9] = test system: Streptococcus intermedius; experiment: Antimicrobial activity against invasive Streptococcus intermedius obtained from non-cystic fibrosis patient assessed as non-susceptible isolates grown on mueller-Hinton blood agar at 30 ug/ml after 24 hrs at 37 degC by disk diffusion method in presence of 5% defribinated sheep blood
[10] = test system: Streptococcus intermedius; experiment: Antimicrobial activity against invasive Streptococcus intermedius obtained from non-cystic fibrosis patient assessed as non-susceptible isolates grown on brain heart infusion agar at 30 ug/ml after 24 hrs at 37 degC by disk diffusion method
Streptococcus anginosus [11] = experiment: Antimicrobial activity against Streptococcus anginosus obtained from patient with cystic fibrosis assessed as non-susceptible isolates grown on mueller-Hinton blood agar at 30 ug/ml after 24 hrs at 37 degC by disk diffusion method in presence of 5% defribinated sheep blood
[12] = test system: Streptococcus constellatus; experiment: Antimicrobial activity against Streptococcus constellatus obtained from patient with cystic fibrosis assessed as non-susceptible isolates grown on mueller-Hinton blood agar at 30 ug/ml after 24 hrs at 37 degC by disk diffusion method in presence of 5% defribinated sheep blood
[13] = test system: Streptococcus constellatus; experiment: Antimicrobial activity against invasive Streptococcus constellatus obtained from non-cystic fibrosis patient assessed as non-susceptible isolates grown on mueller-Hinton blood agar at 2 ug/ml after 24 hrs at 37 degC by disk diffusion method in presence of 5% defribinated sheep blood
[14] = test system: Streptococcus constellatus; experiment: Antimicrobial activity against Streptococcus constellatus obtained from patient with cystic fibrosis assessed as non-susceptible isolates grown on mueller-Hinton blood agar at 2 ug/ml after 24 hrs at 37 degC by disk diffusion method in presence of 5% defribinated sheep blood
Streptococcus anginosus [15] = experiment: Antimicrobial activity against Streptococcus anginosus obtained from patient with cystic fibrosis assessed as non-susceptible isolates grown on brain heart infusion agar at 2 ug/ml after 24 hrs at 37 degC by disk diffusion method; conditions: at 2 µg/mL
[16] = test system: Streptococcus intermedius; experiment: Antimicrobial activity against Streptococcus intermedius obtained from patient with cystic fibrosis assessed as non-susceptible isolates grown on brain heart infusion agar at 2 ug/ml after 24 hrs at 37 degC by disk diffusion method; conditions: at 2 µg/mL
[17] = test system: Streptococcus constellatus; experiment: Antimicrobial activity against Streptococcus constellatus obtained from patient with cystic fibrosis assessed as non-susceptible isolates grown on brain heart infusion agar at 2 ug/ml after 24 hrs at 37 degC by disk diffusion method; conditions: at 2 µg/mL
Streptococcus anginosus [18] = experiment: Antimicrobial activity against invasive Streptococcus anginosus obtained from non-cystic fibrosis patient assessed as non-susceptible isolates grown on mueller-Hinton blood agar at 2 ug/ml after 24 hrs at 37 degC by disk diffusion method in presence of 5% defribinated sheep blood
Streptococcus anginosus [19] = experiment: Antimicrobial activity against Streptococcus anginosus obtained from patient with cystic fibrosis assessed as non-susceptible isolates grown on mueller-Hinton blood agar at 2 ug/ml after 24 hrs at 37 degC by disk diffusion method in presence of 5% defribinated sheep blood
[20] = test system: Streptococcus intermedius; experiment: Antimicrobial activity against invasive Streptococcus intermedius obtained from non-cystic fibrosis patient assessed as non-susceptible isolates grown on mueller-Hinton blood agar at 2 ug/ml after 24 hrs at 37 degC by disk diffusion method in presence of 5% defribinated sheep blood
[21] = test system: Streptococcus intermedius; experiment: Antimicrobial activity against invasive Streptococcus intermedius obtained from non-cystic fibrosis patient assessed as non-susceptible isolates grown on brain heart infusion agar at 2 ug/ml after 24 hrs at 37 degC by disk diffusion method; conditions: at 2 µg/mL
[22] = test system: Streptococcus constellatus; experiment: Antimicrobial activity against invasive Streptococcus constellatus obtained from non-cystic fibrosis patient assessed as non-susceptible isolates grown on brain heart infusion agar at 2 ug/ml after 24 hrs at 37 degC by disk diffusion method; conditions: at 2 µg/mL
[23] = test system: Streptococcus intermedius; experiment: Antimicrobial activity against Streptococcus intermedius obtained from patient with cystic fibrosis assessed as non-susceptible isolates grown on mueller-Hinton blood agar at 2 ug/ml after 24 hrs at 37 degC by disk diffusion method in presence of 5% defribinated sheep blood
Streptococcus anginosus [24] = experiment: Antimicrobial activity against invasive Streptococcus anginosus obtained from non-cystic fibrosis patient assessed as non-susceptible isolates grown on brain heart infusion agar at 2 ug/ml after 24 hrs at 37 degC by disk diffusion method; conditions: at 2 µg/mL
Streptococcus anginosus [25] = experiment: Antimicrobial activity against Streptococcus anginosus obtained from patient with cystic fibrosis assessed as non-susceptible isolates grown on mueller-Hinton blood agar at 15 ug/ml after 24 hrs at 37 degC by disk diffusion method in presence of 5% defribinated sheep blood
[26] = test system: Streptococcus constellatus; experiment: Antimicrobial activity against invasive Streptococcus constellatus obtained from non-cystic fibrosis patient assessed as non-susceptible isolates grown on brain heart infusion agar at 15 ug/ml after 24 hrs at 37 degC by disk diffusion method
[27] = test system: Streptococcus intermedius; experiment: Antimicrobial activity against Streptococcus intermedius obtained from patient with cystic fibrosis assessed as non-susceptible isolates grown on mueller-Hinton blood agar at 15 ug/ml after 24 hrs at 37 degC by disk diffusion method in presence of 5% defribinated sheep blood
[28] = test system: Streptococcus intermedius; experiment: Antimicrobial activity against Streptococcus intermedius obtained from patient with cystic fibrosis assessed as non-susceptible isolates grown on brain heart infusion agar at 15 ug/ml after 24 hrs at 37 degC by disk diffusion method
Streptococcus anginosus [29] = experiment: Antimicrobial activity against invasive Streptococcus anginosus obtained from non-cystic fibrosis patient assessed as non-susceptible isolates grown on brain heart infusion agar at 15 ug/ml after 24 hrs at 37 degC by disk diffusion method
[30] = test system: Streptococcus constellatus; experiment: Antimicrobial activity against Streptococcus constellatus obtained from patient with cystic fibrosis assessed as non-susceptible isolates grown on brain heart infusion agar at 15 ug/ml after 24 hrs at 37 degC by disk diffusion method
[31] = test system: Streptococcus intermedius; experiment: Antimicrobial activity against invasive Streptococcus intermedius obtained from non-cystic fibrosis patient assessed as non-susceptible isolates grown on brain heart infusion agar at 15 ug/ml after 24 hrs at 37 degC by disk diffusion method
[32] = test system: Streptococcus intermedius; experiment: Antimicrobial activity against invasive Streptococcus intermedius obtained from non-cystic fibrosis patient assessed as non-susceptible isolates grown on mueller-Hinton blood agar at 15 ug/ml after 24 hrs at 37 degC by disk diffusion method in presence of 5% defribinated sheep blood
Streptococcus anginosus [33] = experiment: Antimicrobial activity against Streptococcus anginosus obtained from patient with cystic fibrosis assessed as non-susceptible isolates grown on brain heart infusion agar at 15 ug/ml after 24 hrs at 37 degC by disk diffusion method
[34] = test system: Streptococcus constellatus; experiment: Antimicrobial activity against invasive Streptococcus constellatus obtained from non-cystic fibrosis patient assessed as non-susceptible isolates grown on mueller-Hinton blood agar at 15 ug/ml after 24 hrs at 37 degC by disk diffusion method in presence of 5% defribinated sheep blood
[35] = test system: Streptococcus constellatus; experiment: Antimicrobial activity against Streptococcus constellatus obtained from patient with cystic fibrosis assessed as non-susceptible isolates grown on mueller-Hinton blood agar at 15 ug/ml after 24 hrs at 37 degC by disk diffusion method in presence of 5% defribinated sheep blood
Streptococcus anginosus [36] = experiment: Antimicrobial activity against invasive Streptococcus anginosus obtained from non-cystic fibrosis patient assessed as non-susceptible isolates grown on mueller-Hinton blood agar at 15 ug/ml after 24 hrs at 37 degC by disk diffusion method in presence of 5% defribinated sheep blood

## CO/N=C(\C(=O)N[C@@H]1C(=O)N2C(C(=O)[O-])=C(C[N+]3(C)CCCC3)CS[C@H]12)c1csc(N)n1
Streptococcus anginosus [1]
  Activity: 0%
[2]
  Activity: 0%
Streptococcus anginosus [3]
  Activity: 0%
[4]
  Activity: 0%
[5]
  Activity: 0%
[6]
  Activity: 3.1%
[7]
  Activity: 0%
Streptococcus anginosus [8]
  Activity: 0%
[9]
  Activity: 0%
[10]
  Activity: 0%
Streptococcus anginosus [11]
  Activity: 2.5%
[12]
  Activity: 0%

## CCC[C@@H]1C[C@@H](C(=O)N[C@@H]([C@H]2O[C@H](SC)[C@H](O)[C@@H](O)[C@H]2O)[C@H](C)Cl)N(C)C1 [CLINDAMYCIN]
[13]
  Activity: 0%
[14]
  Activity: 20%
Streptococcus anginosus [15]
  Activity: 56.5%
[16]
  Activity: 28.1%
[17]
  Activity: 62.5%
Streptococcus anginosus [18]
  Activity: 0%
Streptococcus anginosus [19]
  Activity: 52.5%
[20]
  Activity: 28.6%
[21]
  Activity: 12.5%
[22]
  Activity: 0%
[23]
  Activity: 50%
Streptococcus anginosus [24]
  Activity: 0%

## CO/N=C(\C(=O)N[C@@H]1C(=O)N2C(C(=O)O)=C(CSc3nc(=O)c(O)nn3C)CS[C@H]12)c1csc(N)n1 [CEFTRIAXONE]
[2]
  Activity: 0%
Streptococcus anginosus [3]
  Activity: 0%
[7]
  Activity: 0%
[9]
  Activity: 0%
Streptococcus anginosus [11]
  Activity: 0%
[12]
  Activity: 0%

## CN(C)[C@@H]1C(O)=C(C(N)=O)C(=O)[C@@]2(O)C(O)=C3C(=O)c4c(O)cccc4[C@@](C)(O)[C@H]3C[C@@H]12 [TETRACYCLINE]
[2]
  Activity: 33.3%
[7]
  Activity: 0%
[9]
  Activity: 0%
Streptococcus anginosus [11]
  Activity: 27.5%
[12]
  Activity: 0%

## CC[C@H]1OC(=O)[C@H](C)[C@@H](O[C@H]2C[C@@](C)(OC)[C@@H](O)[C@H](C)O2)[C@H](C)[C@@H](O[C@@H]2O[C@H](C)C[C@H](N(C)C)[C@H]2O)[C@](C)(O)C[C@@H](C)CN(C)[C@H](C)[C@@H](O)[C@]1(C)O [AZITHROMYCIN]
Streptococcus anginosus [25]
  Activity: 60%
[26]
  Activity: 7.7%
[27]
  Activity: 50%
[28]
  Activity: 34.4%
Streptococcus anginosus [29]
  Activity: 0%
[30]
  Activity: 65%
[31]
  Activity: 16.7%
[32]
  Activity: 28.6%
Streptococcus anginosus [33]
  Activity: 56.5%
[34]
  Activity: 0%
[35]
  Activity: 20%
Streptococcus anginosus [36]
  Activity: 11.1%

## CC[C@H]1OC(=O)[C@H](C)[C@@H](O[C@H]2C[C@@](C)(OC)[C@@H](O)[C@H](C)O2)[C@H](C)[C@@H](O[C@@H]2O[C@H](C)C[C@H](N(C)C)[C@H]2O)[C@](C)(O)C[C@@H](C)C(=O)[C@H](C)[C@@H](O)[C@]1(C)O [ERYTHROMYCIN]
Streptococcus anginosus [25]
  Activity: 57.5%
[26]
  Activity: 7.7%
[27]
  Activity: 50%
[28]
  Activity: 34.4%
Streptococcus anginosus [29]
  Activity: 11.1%
[30]
  Activity: 65%
[31]
  Activity: 16.7%
[32]
  Activity: 28.6%
Streptococcus anginosus [33]
  Activity: 52.2%
[34]
  Activity: 0%
[35]
  Activity: 20%
Streptococcus anginosus [36]
  Activity: 11.1%
